Each structure is given as a SMILES string. Bounds are passed on as bounds.

These results are taken from patent US9115083B2 (Simpson Biotech Co., Ltd, priority 2011, dated 2015).

Sequence of HCV NS3/4A protease (P27958 1027-1657): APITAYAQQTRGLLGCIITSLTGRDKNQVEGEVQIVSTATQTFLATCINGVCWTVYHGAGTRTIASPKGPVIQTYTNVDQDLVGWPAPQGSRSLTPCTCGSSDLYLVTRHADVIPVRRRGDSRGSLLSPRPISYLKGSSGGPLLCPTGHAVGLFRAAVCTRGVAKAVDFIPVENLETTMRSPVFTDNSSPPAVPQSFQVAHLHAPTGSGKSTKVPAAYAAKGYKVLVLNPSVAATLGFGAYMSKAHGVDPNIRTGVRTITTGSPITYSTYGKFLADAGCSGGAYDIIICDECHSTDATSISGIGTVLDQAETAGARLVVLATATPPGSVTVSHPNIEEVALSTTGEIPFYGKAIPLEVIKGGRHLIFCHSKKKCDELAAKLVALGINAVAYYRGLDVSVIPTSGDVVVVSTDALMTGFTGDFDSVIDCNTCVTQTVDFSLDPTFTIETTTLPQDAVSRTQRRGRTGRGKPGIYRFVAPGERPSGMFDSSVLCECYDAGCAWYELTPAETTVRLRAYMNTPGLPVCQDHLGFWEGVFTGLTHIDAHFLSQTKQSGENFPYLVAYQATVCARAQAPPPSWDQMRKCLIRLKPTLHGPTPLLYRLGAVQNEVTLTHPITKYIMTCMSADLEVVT
Sequence of HCV NS3/4A protease (P27958 1658-1711 partner): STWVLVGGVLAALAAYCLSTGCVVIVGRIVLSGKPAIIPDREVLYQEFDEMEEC

The assay deals with HCV NS3/4A protease (Hepatitis C virus genotype 1a (isolate H77) (HCV), UniProt P27958). Nature of the assay: HCV protease assay (fluorimetric, FRET substrate). Type of assay: biochemical. Particulars: HCV NS3/4A protease, 30 min at 37° C., triplicate; read-out: IC50 against HCV protease. The text has this:
The HCV protease assay herein was applied to investigate the HCV-protease inhibitory activity of the prepared compounds as described above. The method of the HCV protease assay was described in D. T. Phuong, C. M. Ma, M. Hattori and J. S. Jin: Inhibitory Effects of Antrodins A-E from Antrodia cinnamomea and Their Metabolites on Hepatitis C Virus Protease. Phytotherapy Research, 23, 582-584, 2009. Two micro liters of a compound solution (using DMSO as solvent) was placed in 384 well micro plate, then 8 μl of HCV NS3/4A protease ([…]) was added to the well containing a sample and the plate was agitated. Finally, 10 μL of freshly prepared substrate (Ac-Asp-Glu-Dap(QXL™520)-Glu-Glu-Abu-COO-Ala-Ser-Cys(5-FAMsp)-NH2) (100× dilution of a DMSO stock solution) was added with sequential rotational shaking. The reaction mixture was incubated for 30 min at 37° C. The fluorimetric analyses were performed on an automated TECAN GENios plate reader with excitation wavelength at 485 nm and emission 530 nm. Each test compound was carried out in triplicate. The HCV—PR inhibition (%) was calculated by using the following equation: % inhibition=(Fvehicle control−[…])×100/Fvehicle control (Where F is the fluorescence value of vehicle control or of sample minus the fluorescence of the substrate control).
Take `COC(=O)C(NC(=O)C(CC(C)C)N1C(=O)C(CC(C)C)=C(c2ccc(OCC=C(C)C)cc2)C1=O)C(C)C` (centres unmarked) [Compound A1-1, Methyl 2-(2-(3-isobutyl-4-(4-(3-methylbut-2-enyloxy)phenyl)-2,5-dioxo-2,5-dihydro-1H-pyrrol-1-yl)-4-methylpentanamido)-3-methyl-butanoate]: the IC50 is more than 100 µM.

Turning to `CCOC(=O)C(Cc1ccc(O)cc1)NC(=O)C(CC(C)C)N1C(=O)C(CC(C)C)=C(c2ccc(OCC=C(C)C)cc2)C1=O` (centres unmarked) [Compound A1-2, Ethyl 3-(4-hydroxyphenyl)-2-(2-(3-isobutyl-4-(4-(3-methylbut-2-enyloxy)phenyl)-2,5-dioxo-2,5-dihydro-1H-1-yl)-4-methylpentanamido)propanoate], the IC50 is more than 100 µM.

As to `COC(=O)C(CO)NC(=O)C(CC(C)C)N1C(=O)C(CC(C)C)=C(c2ccc(OCC=C(C)C)cc2)C1=O` (centres unmarked) [Compound A1-3, Methyl 3-hydroxy-2-(2-(3-isobutyl-4-(4-(3-methylbut-2-enyloxy)-phenyl)-2,5-dioxo-2,5-dihydro-1H-pyrrol-1-yl)-4-methylpentanamido)-propanoate], the IC50 was more than 100 µM.

On to `COC(=O)C1CCCN1C(=O)C(CC(C)C)N1C(=O)C(CC(C)C)=C(c2ccc(OCC=C(C)C)cc2)C1=O` (centres unmarked) [Compound A1-4], for which the IC50 is more than 100 µM.

For the compound `CC(C)=CCOc1ccc(C2=C(CC(C)C)C(=O)N(C(CC(C)C)C(=O)NC3CC3)C2=O)cc1` (centres unmarked) [Compound A1-6, N-Cyclopropyl-2-(3-isobutyl-4-(4-(3-methylbut-2-enyloxy)phenyl)-2,5-dioxo-2,5-dihydro-1H-pyrrol-1-yl)-4-methylpentanamide], the IC50 was more than 200 µM.

Consider `CC(C)CC1C(=O)N(C(CC(C)C)C(=O)N[C@@H](Cc2ccccc2)C(=O)O)C(=O)C1c1ccc(O)cc1` (some centres unmarked) [Compound A1-7], for which the concentration for half-maximal inhibition (IC50) came out at 27 µM.

Consider `CC(C)CC1C(=O)N(C(CC(C)C)C(=O)N[C@@H](C)C(=O)O)C(=O)C1c1ccc(O)cc1` (some centres unmarked) [Compound A1-10], for which the IC50 came to 16 µM.

For `COC(=O)[C@H](CC(C)C)NC(=O)C(Cc1ccccc1)N1C(=O)C(CC(C)C)=C(c2ccc(OCC=C(C)C)cc2)C1=O` (some centres unmarked) [Compound A2-1, Methyl 2-(2-(3-isobutyl-4-(4-(3-methylbut-2-enyloxy)phenyl)-2,5-dioxo-2,5-dihydro-1H-pyrrol-1-yl)-3-phenylpropanamido)-4-methylpentanoate], the IC50 was more than 100 µM.

For `CCOC(=O)C(Cc1ccccc1)NC(=O)C(Cc1ccccc1)N1C(=O)C(CC(C)C)=C(c2ccc(OCC=C(C)C)cc2)C1=O` (centres unmarked) [Compound A2-2, Ethyl 2-(2-(3-isobutyl-4-(4-(3-methylbut-2-enyloxy)phenyl)-2,5-dioxo-2,5-dihydro-1H-pyrrol-1-yl)-3-phenylpropanamido)-3-phenylpropanoate], the IC50 turned out to be 100 µM.

Take `CCOC(=O)[C@H](Cc1ccc(O)cc1)NC(=O)C(Cc1ccccc1)N1C(=O)C(CC(C)C)=C(c2ccc(OCC=C(C)C)cc2)C1=O` (some centres unmarked) [Compound A2-3, Ethyl 3-(4-hydroxyphenyl)-2-(2-(3-isobutyl-4-(4-(3-methylbut-2-enyloxy)phenyl)-2,5-dioxo-2,5-dihydro-1H-pyrrol-1-yl)-3-phenylpropanamido)propanoate]: the IC50 worked out at 100 µM.

For `CC(C)CC1C(=O)N(C(Cc2ccccc2)C(=O)N[C@@H](CC(C)C)C(=O)O)C(=O)C1c1ccc(O)cc1` (some centres unmarked) [Compound A2-11], the IC50 was found to be 120 µM.

As to `CC(C)CC1C(=O)N(C(Cc2ccccc2)C(=O)N[C@@H](Cc2ccccc2)C(=O)O)C(=O)C1c1ccc(O)cc1` (some centres unmarked) [Compound A2-12], the IC50 stood at 192 µM.

`CC(C)CC1C(=O)N(C(CO)C(=O)N[C@@H](Cc2ccccc2)C(=O)O)C(=O)C1c1ccc(O)cc1` (some centres unmarked) [Compound A3-16]: the IC50 was determined as 132 µM.

Regarding `CC(C)=CCOc1ccc(C2=C(CC(C)C)C(=O)N(C(Cc3ccc(O)cc3)C(=O)O)C2=O)cc1` (centres unmarked) [Compound A4, 3-(4-Hydroxyphenyl)-2-(3-isobutyl-4-(4-(3-methylbut-2-enyloxy)-phenyl)-2,5-dioxo-2,5-dihydro-1H-pyrrol-1-yl)propanoic acid], the IC50 stood at 16 µM.

For the compound `CSCCC(C(=O)O)N1C(=O)C(CC(C)C)=C(c2ccc(OCC=C(C)C)cc2)C1=O` (centres unmarked) [Compound A5, 2-(3-Isobutyl-4-(4-(3-methylbut-2-enyloxy)phenyl)-2,5-dioxo-2,5-dihydro-1H-pyrrol-1-yl)-4-(methylthio)butanoic acid], the IC50 worked out at 21 µM.

In the case of `CC(C)=CCOc1ccc(C2=C(CC(C)C)C(=O)N(C(C(=O)O)C(C)O)C2=O)cc1` (centres unmarked) [Compound A6, 3-Hydroxy-2-(3-isobutyl-4-(4-(3-methylbut-2-enyloxy)phenyl)-2,5-dioxo-2,5-dihydro-1H-pyrrol-1-yl)butanoic acid], the half-maximal inhibitory concentration (IC50) was 18 µM.

Consider `CC(C)=CCOc1ccc(C2=C(CC(C)C)C(=O)N(C(C(=O)O)C(C)C)C2=O)cc1` (centres unmarked) [Compound A7, 2-(3-Isobutyl-4-(4-(3-methylbut-2-enyloxy)phenyl)-2,5-dioxo-2,5-dihydro-1H-pyrrol-1-yl)-3-methylbutanoic acid], for which the IC50 came out at 23.3 µM.

For the compound `CC(C)=CCOc1ccc(C2=C(CC(C)C)C(=O)N(C(C)C(=O)O)C2=O)cc1` (centres unmarked) [Compound A8, 2-(3-Isobutyl-4-(4-(3-methylbut-2-enyloxy)phenyl)-2,5-dioxo-2,5-dihydro-1H-pyrrol-1-yl)propanoic acid], the IC50 was 27 µM.

For `CC(C)=CCOc1ccc(C2=C(CC(C)C)C(=O)N(C(CCC(=O)O)C(=O)O)C2=O)cc1` (centres unmarked) [Compound A9, 2-(3-Isobutyl-4-(4-(3-methylbut-2-enyloxy)phenyl)-2,5-dioxo-2,5-dihydro-1H-pyrrol-1-yl)pentanedioic acid], the IC50 is 19 µM.

In the case of `CC(C)CC1C(=O)N(C(Cc2ccccc2)C(=O)O)C(=O)C1c1ccc(O)cc1` (centres unmarked) [Compound A11], the IC50 worked out at 63 µM.

Consider `CC(C)CC1C(=O)N(C(CO)C(=O)O)C(=O)C1c1ccc(O)cc1` (centres unmarked) [Compound A12], for which the IC50 worked out at 25 µM.

On to `CC(C)CC1C(=O)N(C(C(=O)O)C(C)C)C(=O)C1c1ccc(O)cc1` (centres unmarked) [Compound A15], for which the IC50 amounted to 85 µM.

Take `CC(C)CC1C(=O)N(C(C)C(=O)O)C(=O)C1c1ccc(O)cc1` (centres unmarked) [Compound A16]: the IC50 is 170 µM.

Regarding `CC(C)CC1C(=O)N(C(CCOCO)C(=O)O)C(=O)C1c1ccc(O)cc1` (centres unmarked) [Compound A17], the IC50 is 105 µM.

For `CC(C)=CCOc1ccc(C2=C(CC(C)C)C(=O)N(CC(O)C(=O)O)C2=O)cc1` (centres unmarked) [KA, 2-Hydroxy-3-(3-isobutyl-4-(4-(3-methylbut-2-enyloxy)phenyl)-2,5-dioxo-2,5-dihydro-1H-pyrrol-1-yl)propanoic acid], the IC50 came to 8.7 µM.

Take `CC(C)=CCOc1ccc(C2=C(CC(C)C)C(=O)N(CC(=O)C(=O)NC(C)C(=O)OC(C)(C)C)C2=O)cc1` (centres unmarked) [KA-5-2]: the IC50 was determined as 47.6 µM.

Take `CC(C)CC1C(=O)N(CC(=O)C(=O)NC(C)C(=O)O)C(=O)C1c1ccc(O)cc1` (centres unmarked) [KA-5]: the IC50 was found to be 70 µM.

For the compound `CC(C)CC1C(=O)N(CC(O)C(=O)O)C(=O)C1c1ccc(O)cc1` (centres unmarked) [KA-t], the IC50 was 185 µM.

`CC(C)=CCOc1ccc(C2=C(CC(C)C)C(=O)N(CC(=O)C(N)=O)C2=O)cc1` [KAnh-1]: the IC50 is 153 µM.

With `CC(C)CC1C(=O)N(CC(=O)C(N)=O)C(=O)C1c1ccc(O)cc1` (centres unmarked) [KAnh-2], the IC50 was found to be 146 µM.

Take `CC(C)=CCOc1ccc(C2=C(CC(C)C)C(=O)N(CCC(O)C(=O)O)C2=O)cc1` (centres unmarked) [KB, 2-Hydroxy-4-(3-isobutyl-4-(4-(3-methylbut-2-enyloxy)phenyl)-2,5-dioxo-2,5-dihydro-1H-pyrrol-1-yl)butanoic acid]: the 50% inhibitory concentration (IC50) is 15.6 µM.

For `CC(C)=CCOc1ccc(C2=C(CC(C)C)C(=O)N(CCC(=O)C(=O)NC3CC3)C2=O)cc1` [KB-1, N-Cyclopropyl-4-(3-isobutyl-4-(4-(3-methylbut-2-enyloxy)phenyl)-2,5-dioxo-2,5-dihydro-1H-pyrrol-1-yl)-2-oxobutanamide], the half-inhibitory concentration (IC50) came to 61.9 µM.

With `CC(C)=CCOc1ccc(C2=C(CC(C)C)C(=O)N(CCC(=O)C(=O)NC(C)C(=O)OC(C)(C)C)C2=O)cc1` (centres unmarked) [KB-1-2], the IC50 was 35.2 µM.

As for `CC(C)=CCOc1ccc(C2=C(CC(C)C)C(=O)N(CCC(=O)C(=O)NC(Cc3ccccc3)C(=O)OC(C)(C)C)C2=O)cc1` (centres unmarked) [KB-2-2], the concentration for half-maximal inhibition (IC50) was determined as 16.2 µM.

As for `CC(C)CC1C(=O)N(CCC(=O)C(=O)NC(Cc2ccccc2)C(=O)O)C(=O)C1c1ccc(O)cc1` (centres unmarked) [KB-2], the IC50 came to 100 µM.

`CC(C)=CCOc1ccc(C2=C(CC(C)C)C(=O)N(CCC(=O)C(N)=O)C2=O)cc1` [KBnh-1]: the IC50 came to 12.1 µM.

As to `CC(C)CC1C(=O)N(CCC(=O)C(N)=O)C(=O)C1c1ccc(O)cc1` (centres unmarked) [KBnh-2], the IC50 was found to be 7.4 µM.

`CC(C)=CCOc1ccc(C2=C(CC(C)C)C(=O)N(C(c3ccccc3)C(O)C(=O)O)C2=O)cc1` (centres unmarked) [KC, 2-Hydroxy-3-(3-isobutyl-4-(4-(3-methylbut-2-enyloxy)phenyl)-2,5-dioxo-2,5-dihydro-1H-pyrrol-1-yl)-3-phenylpropanoic acid]: the IC50 amounted to 5 µM.

What is called IC50 is the midpoint of a concentration-inhibition curve.
